US8507290B2, “Water-soluble silsesquioxanes as organic quantum dots for sensing and imaging” (National University of Singapore, priority 2009, dated 2013)

Assays:
[1] = system: dsDNA and RNA; details: cited from earlier work
[2] = system: breast cancer cells (MCF-7); assay: One-photon and two-photon fluorescent cellular nucleus imaging (CLSM); assay type: cell-based; details: 2 h, signals above 560 nm
Protocol: One-photon and two-photon fluorescence images of the MCF-7 cells were then obtained.
OPEF imaging was obtained by excitation of the cells at 488 nm and collection of fluorescence above 560 nm under the fixed parameters. […] As nucleolus is the site of ribosomal RNA synthesis, it has the highest concentration of RNA in nucleus.
For TPEF imaging, the dye concentrations are fixed at 1 μM, and the cellular images were acquired by excitation of the cells at near-infrared wavelength (760 nm) and collection of signals above 560 nm.

Compound: SYTO 9
- light-up response toward dsDNA and RNA (commercial dyes) [1]: nearly equal light-up responses toward dsDNA and RNA

Compound: CCCN(CCCN(C)C)c1cc(/C=C2/Sc3ccccc3N2C)c2ccccc2[n+]1-c1ccccc1 [SG, SYBR Green I]
- two-photon fluorescence (TPEF) imaging of nucleus ([2]; MCF-7, 1 μM dye, excitation at 760 nm): does not provide a clear cellular image
- one-photon fluorescence (OPEF) imaging: uptake and localisation ([2]; MCF-7, dye 1 μM (also 0.1 and 0.02 μM), excitation at 488 nm): homogenously-stained nucleus pattern
- light-up response toward dsDNA and RNA (commercial dyes) [1]: only shows strong light-up response toward dsDNA
